Test results: patent US8629251B2, “Specific detection and quantification of phosphatidic acid using an Arabidopsis trigalactosyldiacylglycerol-4 (TGD4) protein” (Board of Trustees of Michigan State University, priority 2008, dated 2014)

Assays:
[1] = biological target: T1, Arabidopsis TGD2, DsRed-TGD2C T5 (residues 119-300, SEQ ID NO:28) (Arabidopsis thaliana, UniProt Q9LTR2); test: Liposome-association assay, TGD2C T5 (119-300); assay type: binding; details: FIG. 3C
T1 sequence (Q9LTR2 119-300): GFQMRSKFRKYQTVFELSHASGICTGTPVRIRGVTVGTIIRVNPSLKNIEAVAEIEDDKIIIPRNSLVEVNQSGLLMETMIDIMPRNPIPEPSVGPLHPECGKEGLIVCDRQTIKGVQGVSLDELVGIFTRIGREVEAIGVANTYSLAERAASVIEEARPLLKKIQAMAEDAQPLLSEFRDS
Experimental: (§1) The liposome association assay was performed as previously reported. (31). Briefly, lipids (dioleoyl-phosphatidylcholine, DOPC or dioleoyl-PA, DOPA) were incubated in TBS (50 mM Tris-HCl, pH 7; 0.1 M NaCl) at 37° C. for an hour followed by vigorous vortexing for 5 min. The liposomes were precipitated at 20,000 g and washed twice with ice-cold TBS.
(§2) Liposomes (200 μg) were mixed with purified DsRed-TGD2 fusion protein and TBS to make a final 100 μL solution. The mixture was incubated at 30° C. for 30 min and washed twice with ice-cold TBS by centrifugation at 20,000 g at 4° C. The liposome pellet mixed with sample buffer was analyzed by SDS-PAGE (28). Immuno-detection of the His-tagged protein was accomplished using the above mentioned Penta-His antibody at 1:15,000 and the anti mouse antibody at 1:75,000 dilution.
(§3) The protein band was visualized by chemiluminescent detection kit from Sigma. The autoradiography film was scanned, distinct protein bands were quantified using computer software Multi Gauge V3.0 (Fujifilm USA, Valhalla, N.Y.) and resulted data were plotted and analyzed by OriginPro8 (Origin lab corporation, Northampton, Mass.).

[2] = biological target: T2, Arabidopsis TGD2, DsRed-TGD2C WT fusion protein, residues 119-381, SEQ ID NO:107 (Arabidopsis thaliana, UniProt Q9LTR2); test: Protein-lipid overlay assay, DsRed-TGD2C WT; assay type: binding; details: commercial phospholipid membrane strip
T2 sequence (Q9LTR2 121-381): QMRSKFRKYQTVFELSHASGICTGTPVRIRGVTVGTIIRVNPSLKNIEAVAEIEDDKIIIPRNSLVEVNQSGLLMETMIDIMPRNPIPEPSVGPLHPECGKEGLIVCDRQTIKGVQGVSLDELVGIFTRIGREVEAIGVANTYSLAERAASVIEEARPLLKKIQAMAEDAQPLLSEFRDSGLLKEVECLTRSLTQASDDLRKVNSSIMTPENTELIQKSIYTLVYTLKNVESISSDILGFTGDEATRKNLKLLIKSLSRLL
Experimental: (§4) Membrane lipid strips were purchased from Echelon Biosciences (Salt Lake City, Utah). The strips were first blocked with 3% bovine serum albumin in TBST (10 mM Tris-HCl, pH 8.0, 150 mM NaCl, and 0.25% Tween-20) for two hours and incubated in 0.5 μg/mL DsRed-TGD2 fusion protein solution in the blocking buffer at 4° C. overnight. The strips were washed 10 min for 3 times with TBST the next day and soaked in 3% bovine serum albumin in TBST with a Penta-His mouse monoclonal antibody (Sigma-Aldrich, St. Louis, Mo.) at 1:2,000 dilution at 4° C. overnight. The strips were washed twice with TBST and soaked in 3% bovine serum albumin in TBST with horseradish peroxidase-conjugated anti mouse antibody (Bio-Rad, Hercules, Calif.) at 1:20,000 dilution for an hour at room temperature. Following washing with TBST for 1 hour, the protein was detected by using the chemiluminescent detection system (Sigma-Aldrich).

[3] = test system: DsRed protein (Discosoma sp. red fluorescent protein); test: Liposome-association assay, DsRed control; assay type: binding; details: FIG. 3B
Experimental: as §1, §2, §3

[4] = biological target: T3, Arabidopsis TGD2, DsRed-TGD2C T9 (residues 221-250, SEQ ID NO:40) (Arabidopsis thaliana, UniProt Q9LTR2); test: Liposome-association assay, TGD2C T9 (221-250); assay type: binding
T3 sequence (Q9LTR2 221-250): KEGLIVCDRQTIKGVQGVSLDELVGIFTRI
Experimental: as §1, §2, §3

[5] = biological target: T4, Arabidopsis TGD2, DsRed-TGD2C T8 (residues 201-225, SEQ ID NO:12) (Arabidopsis thaliana, UniProt Q9LTR2); test: Protein-lipid overlay assay, minimal domain; assay type: binding; details: FIG. 4B; compared to DR-WT
T4 sequence (Q9LTR2 201-225): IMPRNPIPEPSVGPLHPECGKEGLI
Experimental: as §4

[6] = biological target: Arabidopsis TGD2, DsRed-TGD2C D2 (Δ221-225, SEQ ID NO:46) (Arabidopsis thaliana, UniProt Q9LTR2, DEL221-225); test: Liposome-association assay, TGD2C D2 (Δ221-225); assay type: binding; details: FIG. 3C
Arabidopsis TGD2, DsRed-TGD2C D2 (Δ221-225, SEQ ID NO:46), sequence (Q9LTR2 other isoform, or with tags, fused parts or gaps DEL221-225): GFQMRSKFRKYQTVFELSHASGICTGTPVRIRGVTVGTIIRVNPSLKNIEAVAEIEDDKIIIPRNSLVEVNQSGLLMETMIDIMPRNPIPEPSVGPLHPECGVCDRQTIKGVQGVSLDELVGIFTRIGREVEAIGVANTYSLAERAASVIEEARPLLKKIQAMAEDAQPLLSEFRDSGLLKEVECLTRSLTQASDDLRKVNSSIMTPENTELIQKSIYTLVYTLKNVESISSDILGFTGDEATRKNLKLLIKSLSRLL
Experimental: as §1, §2, §3

[7] = biological target: T5, Arabidopsis TGD2, N-terminally truncated TGD2-dTMD-His (from Gly-119) (Arabidopsis thaliana, UniProt Q9LTR2); test: Membrane lipid binding assay, TGD2-dTMD-His; details: lipid membranes, FIG. 8A
T5 sequence (Q9LTR2 119-381): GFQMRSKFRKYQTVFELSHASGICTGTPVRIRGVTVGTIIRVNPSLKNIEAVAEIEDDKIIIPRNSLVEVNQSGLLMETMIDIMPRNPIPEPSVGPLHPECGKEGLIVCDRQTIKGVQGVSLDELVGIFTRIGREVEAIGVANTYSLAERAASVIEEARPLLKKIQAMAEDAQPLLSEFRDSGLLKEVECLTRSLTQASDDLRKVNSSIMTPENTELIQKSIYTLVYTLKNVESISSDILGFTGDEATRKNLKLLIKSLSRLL
Experimental: Commercially available membrane strips prespotted with lipids were purchased. (Echelon Biosciences, Salt Lake City, Utah). Prokaryotic phosphatidylcholine and PA were also purchased (Avanti Polar Lipids). Prokaryotic monogalactolipid, digalactolipid, sulfolipid, and phosphatidylglycerol were purified from Synechocystis PCC6803 by TLC of lipid extracts. Eukaryotic monogalactolipid and digalactolipid was isolated from pea leaves.
Approximately 5 μg of lipids were spotted onto a Hybond-C membrane (Amersham Pharmacia Biosciences). The membranes were first blocked with 3% BSA in TBST (10 mM Tris-HCl, pH 8.0/150 mM NaCl/0.1% Tween 20) for 1 h and incubated in 0.5 μg/ml TGD2 protein solution in the blocking buffer at 4° C. overnight. The blots were washed five times with TBST and soaked in 3% BSA in TBST with a Penta-His mouse monoclonal antibody (Qiagen) at a 1:1,000 dilution at room temperature overnight. The membranes were washed twice with TBST and soaked in 3% BSA in TBST with alkaline phosphatase-conjugated anti-mouse antibody (Jackson ImmunoResearch) at a 1:5,000 dilution for 1 hour at room temperature. After washing with TBST twice, the protein was detected by using the Immun-Star AP detection system (Bio-Rad).

Compound: CCCCCCCC/C=C\CCCCCCCC(=O)OC[C@H](COP(=O)(O)O)OC(=O)CCCCCCC/C=C\CCCCCCCC [PA, phosphatidic acid]
- PA binding [1]: strong binding
- binding to lipids on membrane strip [2]: shows specificity for PA over other lipids
- binding to PC or PA [3]: does not display binding
- PA binding [4]: no interaction to PA was detected
- PA binding on membrane strip [5]: binds PA on the membrane strip, with apparent lower affinity
- PA binding [6]: decreased binding activity dramatically
- binding of lipids [7]: bound
